The source of these data is patent publication US6444684B1 (priority 1993, dated 2002).

Data set [1] deals with K/1 = ras^K Transformed NRKE Cells. To be noted: for selective toxicity against ras^K oncogene bearing tumor cells as compared to the normal, non-transformed cells: LC50 NRKE divided by LC50 K/1; for Differential Index K/1: K/1 = ras^K transformed NRKE cells, compared with normal NRKE cells.
Data set [2] has as its system K/1-NRKE tumor (ras^K-transformed NRKE cells).
In data set [3] the test system is Leukemia cell lines. The experiment in a line: NCI in vitro anticancer screen (SRB), leukemia subpanel. The conditions noted are these: for Activity (Average PG for highest dose tested) Leukemia: 48 hours exposure, average percent growth over the cell lines.
Protocol: (§1) Compounds chosen for the program are initially tested in an in vitro anticancer screen. A total of fifty-five human tumor cell lines, derived from nine cancer types (lung, colon, melanoma, renal, ovarian, brain, prostate, breast and leukemia), are used in this screen. The tumor cells are inoculated over a series of standard 96-well microtiter plates on day 0. These cells are then preincubated on the microtiter plates for 24 hours. The test compounds are added to the wells in five 10-fold dilutions starting from the highest soluble concentration. Each compound is tested against every cell line in the panel. The compounds are incubated for 48 hours with the tumor cell lines. At the termination of the assay, the cells are fixed in situ, washed, and dried. Sulforhodamine B (SRB), a pink anionic dye that binds to the basic amino acids of trichloroacetic acid-fixed cells, is added. The cells are washed again, and the remaining dye is a function of the adherent cell mass. The bound stain is solubilized and measured spectrophotometrically. The data are entered from automatic reading devices into a computer for subsequent storage and analysis.
(§2) The measured effect of each test compound on the cell lines is calculated according to one or the other of the following two expressions:
(§3) If (Mean ODtest−Mean ODtzero)□0, then PG=100×(Mean ODtest−Mean ODtzero)/(Mean ODctrl−Mean ODtzero);
(§4) If (Mean ODtest−Mean ODtzero)<0, then PG=100×(Mean ODtest−Mean ODtzero)/Meantzero;
(§5) First, a data sheet is provided which lists, for each cell line, the Mean ODtzero, the Mean ODctrl, the Mean ODtest for each of the five concentrations, the calculated PGs for each concentration, and the response parameters G150, TGI, and LC50.
(§6) Third, mean graphs at each of the principal response parameters (GI50, TGI, and LC50) are provided. […] Since the bar scale is logarithmic, a bar two units to the right implies the compound achieved the response parameter (e.g., GI50) for the cell line at a concentration 1/100 the mean concentration required over all cell lines, and thus the cell line is unusually sensitive to that compound. Bars extending to the left correspondingly imply sensitivity less than the mean. Thus, the mean graphs facilitate visual scanning of data for potential patterns of selectivity for particular cell lines or for particular subpanels with respect to a selected response parameter.
In data set [4] the test system is Melanoma cell lines. Briefly: NCI in vitro anticancer screen (SRB), melanoma subpanel. To be noted: 48 hours exposure; average percent growth over the cell lines.
Protocol: as §1, §2, §3, §4, §5, §6
Data set [5] concerns CNS Cancer cell lines. Briefly: NCI in vitro anticancer screen (SRB), CNS cancer subpanel. The conditions noted are these: 48 hours exposure; average percent growth over the cell lines.
Data set [6] deals with Colon Cancer cell lines. Briefly: NCI in vitro anticancer screen (SRB), colon cancer subpanel. To be noted: 48 hours exposure; average percent growth over the cell lines.
Protocol: as §1, §2, §3, §4
Data set [7] has as its system Renal Cancer cell lines. The experiment in a line: NCI in vitro anticancer screen (SRB), renal cancer subpanel. The conditions noted are these: 48 hours exposure; average percent growth over the cell lines.
Protocol: as §1, §2, §3, §4, §5, §6
For data set [8], the system named is Breast Cancer cell lines. The experiment in a line: NCI in vitro anticancer screen (SRB), breast cancer subpanel. The conditions noted are these: 48 hours exposure; average percent growth over the cell lines.
Protocol: as §1, §2, §3, §4
The subject of data set [9] is Ovarian Cancer cell lines. Briefly: NCI in vitro anticancer screen (SRB), ovarian cancer subpanel. The conditions noted are these: 48 hours exposure; average percent growth over the cell lines.
Protocol: as §1, §2, §3, §4
The test system of data set [10] is Prostate Cancer cell lines. The experiment in a line: NCI in vitro anticancer screen (SRB), prostate cancer subpanel. To be noted: 48 hours exposure; average percent growth over the cell lines.
Protocol: as §1, §2, §3, §4
The test system of data set [11] is Non-Small Cell Lung Cancer cell lines. The experiment in a line: NCI in vitro anticancer screen (SRB), non-small cell lung cancer subpanel. To be noted: 48 hours exposure; average percent growth over the cell lines.
Protocol: as §1, §2, §3, §4, §5, §6

Data set [12] deals with H/1.2 = ras^H Transformed NRKE Cells. To be noted: for Differential Index H/1.2: H/1.2 = ras^H transformed NRKE cells, compared with normal NRKE cells.
Data set [13] relates to N/4.2-NRKE transformed by the human ras^N gene. To be noted: for Differential Index N/4.2: N/4.2 = ras^N transformed NRK cells, compared with normal NRKE cells.
The subject of data set [14] is 3LL = Lewis Lung Carcinoma Cells. The conditions noted are these: 3LL = Lewis lung carcinoma cells, compared with normal NRKE cells.
For data set [15], the system named is K/1 = ras^K Transformed NRKE Cells. Briefly: cells. The conditions noted are these: Rattus norvegicus, read-out: LC50 K/1.
In data set [16] the test system is H/1.2 = ras^H Transformed NRKE Cells. Briefly: cells. To be noted: Rattus norvegicus, read-out: LC50 H/1.2.
Data set [17] has as its system N/4.2-NRKE transformed by the human ras^N gene. The experiment in a line: cells. To be noted: N42, read-out: LC50 N/4.2.
The subject of data set [18] is 3LL = Lewis Lung Carcinoma Cells. Briefly: cells. To be noted: Mus musculus.
Data set [19] can be described thus: in vitro. The conditions noted are these: rat, LC50 NRKE.
Setting [20] is: read-out: LC50 3LL, Table XV (Example 51).

Where two headings read alike, the source gives them in different places.

`CC(=O)NC1=CC(=O)c2ccc(-c3nc(C(=O)OCCC(C)C)cc4c3[nH]c3ccccc34)nc2C1=O` [Compound 20]: the “selective toxicity against ras^K oncogene bearing tumor cells as compared to the normal, non-transformed cells” value in data set [1] came out at 18 fold. Moreover, the “tumor growth inhibition in vivo (in words)” value in [2] (mouse, in vivo) was “excellent tumor growth inhibition”. The “Activity (Average PG for highest dose tested) Leukemia” value in data set [3] is recorded as −4.0%. Besides, the “Activity (Average PG for highest dose tested) Melanoma” value in [4] is reported as −75.2%. The “Activity (Average PG for highest dose tested) CNS Cancer” value in [5] is −49.5%. The “Activity (Average PG for highest dose tested) Colon Cancer” value in [6] is reported as −53.0%. Also, the “Activity (Average PG for highest dose tested) Renal Cancer” value in data set [7] is on record as −56.1%. In addition, the “Activity (Average PG for highest dose tested) Breast Cancer” value in data set [8] is listed as −38.6%. Further, the “Activity (Average PG for highest dose tested) Ovarian Cancer” value in [9] is listed as −42.2%. Further, the “Activity (Average PG for highest dose tested) Prostate Cancer” value in data set [10] was −70.5%. Besides, the “Activity (Average PG for highest dose tested) Non-Small Cell Lung Cancer” value in data set [11] is listed as −19.1%.
For the molecule `CCCCCCCCOC(=O)c1cc2c([nH]c3ccccc32)c(-c2ccc3c(n2)C(=O)C(NC(C)=O)=CC3=O)n1` [Compound 21], the CC50 in [1] stood at 0.25 µM; in data set [12] it was 7.6 µM; in data set [13], 9 µM. Further, the “selective toxicity against ras^K oncogene bearing tumor cells as compared to the normal, non-transformed cells” value in [1] stood at 132 fold. Moreover, the “Number Dead Number Treated” value in data set [2] (150 Mg/Kg/Day IP once daily for 8 days) and in [2] (300 Mg/Kg/Day IP once daily for 8 days) was 0/7 in each case. In addition, the “toxicity in tumor-bearing nude mice (in words)” value in [2] (even at doses up to 300 mg/kg/day) was “little or no toxicity”. For the same molecule, the “tumor growth inhibition in vivo (in words)” value in data set [2] (summary of Table X) is “excellent tumor growth inhibition”. Besides, in [3], the “Activity (Average PG for highest dose tested) Leukemia” value is “+20.3%”. Moreover, the “Activity (Average PG for highest dose tested) Melanoma” value in data set [4] is on record as “+58.6%”. Besides, in [5], the “Activity (Average PG for highest dose tested) CNS Cancer” value is recorded as “+59.3%”. Besides, the “Activity (Average PG for highest dose tested) Colon Cancer” value in data set [6] is on record as “+62.3%”. Also, in data set [7], the “Activity (Average PG for highest dose tested) Renal Cancer” value was “+67.5%”. Further, in [8], the “Activity (Average PG for highest dose tested) Breast Cancer” value was “+62.9%”. In addition, the “Activity (Average PG for highest dose tested) Ovarian Cancer” value in [9] is on record as “+47.0%”. Further, the “Activity (Average PG for highest dose tested) Prostate Cancer” value in data set [10] is reported as “+69.5%”. Also, the “Activity (Average PG for highest dose tested) Non-Small Cell Lung Cancer” value in [11] was “+13.0%”.
`CC(=O)NC1=CC(=O)c2ccc(C=O)nc2C1=O` [Compound 23, 7-ACETAMIDO-2-FORMYLQUINOLINE-5,8-DIONE]: in data set [1], the “Differential Index K/1” value is 0.4. Also, the “Differential Index H/1.2” value in data set [12] was found to be 0.9. The “Differential Index N/4.2” value in [13] worked out at 0.7. The “Differential Index 3LL” value in [14] stood at 1.35. For the same molecule, the CC50 in data set [15] (120 h) came to 2.6 µM; in data set [15], 12.5 µM; in [16] (120 h), 2.5 µM; in [16] it was 5.5 µM; in data set [17] it was 7 µM; in [18] (120 h, read-out: LC50 3LL, Table VII, concentration giving 50% cell kill, 5 days exposure), 1.2 µM. Moreover, the CC50 in data set [18] (setting [20]) is 3.7 µM.
`O=Cc1ccc2c(n1)C(=O)C(NC(=O)CCl)=CC2=O` [Compound 24, 7-CHLOROACETAMIDO-2-FORMYLQUINOLINE-5,8-DIONE]: the “Differential Index K/1” value in data set [1] is listed as 0.6. Further, the “Differential Index H/1.2” value in data set [12] is 1.06. Also, the “Differential Index N/4.2” value in data set [13] was determined as 1.125. In addition, the “Differential Index 3LL” value in [14] worked out at 1.7. The CC50 in data set [15] worked out at 5.8 µM; in data set [16], 3.4 µM; in [17], 3.2 µM; in data set [18] (setting [20]), 2.1 µM. Also, the CC50 at 5 days in [19] turned out to be 3.6 µM.
Take `CCCC(=O)NC1=CC(=O)c2ccc(C=O)nc2C1=O` [Compound 26, 7-BUTYRAMIDO-2-FORMYLQUINOLINE-5,8-DIONE]: the “Differential Index K/1” value in data set [1] is reported as less than 0.9. Besides, the “Differential Index H/1.2” value in data set [12] came out at 0.9. Moreover, in [13], the “Differential Index N/4.2” value is less than 0.9. In addition, the “Differential Index 3LL” value in data set [14] was 1.2. Moreover, the CC50 in data set [15] is more than 3.3 µM; in data set [16], 3.3 µM; in data set [17], more than 3.3 µM; in data set [18] (setting [20]), 2.5 µM. The CC50 at 5 days in [19] turned out to be 3 µM. For the same molecule, the “Activity (Average PG for highest dose tested) Leukemia” value in [3] is −10.8%. In addition, the “Activity (Average PG for highest dose tested) Melanoma” value in data set [4] is given as −79.0%. In addition, the “Activity (Average PG for highest dose tested) CNS Cancer” value in [5] was −61.0%. The “Activity (Average PG for highest dose tested) Colon Cancer” value in data set [6] is given as −17.9%. Also, the “Activity (Average PG for highest dose tested) Renal Cancer” value in [7] is −93.0%. In addition, the “Activity (Average PG for highest dose tested) Breast Cancer” value in [8] is −35.0%. The “Activity (Average PG for highest dose tested) Ovarian Cancer” value in [9] is on record as −63.2%. In data set [10], the “Activity (Average PG for highest dose tested) Prostate Cancer” value is −81.5%. The “Activity (Average PG for highest dose tested) Non-Small Cell Lung Cancer” value in [11] is listed as −50.9%.
Regarding `Cc1ccc2c(n1)C(=O)C(NC(=O)CCl)=CC2=O` [Compound 28, 7-CHLOROACETAMIDO-2-METHYLQUINOLINE-5,8-DIONE], the “Differential Index K/1” value in data set [1] was determined as 0.48. The “Differential Index H/1.2” value in data set [12] was 1.1. Also, the “Differential Index N/4.2” value in [13] came to 0.9. Moreover, the “Differential Index 3LL” value in data set [14] is reported as 1.4. For the same molecule, the CC50 in data set [15] came out at 6.6 µM; in [16] it was 2.8 µM; in data set [17], 3.4 µM; in data set [18] (setting [20]), 2.3 µM. In [19], the CC50 at 5 days was determined as 3.2 µM.
Regarding `CCCC(=O)NC1=CC(=O)c2ccc(C)nc2C1=O` [Compound 30, 7-BUTYRAMIDO-2-METHYLQUINOLINE-5,8-DIONE], the “Differential Index K/1” value in data set [1] is reported as less than 0.6. For the same molecule, the “Differential Index H/1.2” value in [12] was 0.7. Besides, the “Differential Index N/4.2” value in data set [13] is less than 0.6. The “Differential Index 3LL” value in data set [14] is 0.9. Further, the CC50 in data set [15] was more than 3.3 µM; in [16], 2.7 µM; in data set [17], more than 3.3 µM; in data set [18] (setting [20]), 2.2 µM. The molecule also gave a CC50 at 5 days in data set [19] of 2 µM. Also, the “Activity (Average PG for highest dose tested) Leukemia” value in [3] was −21.7%. In data set [3] (repeat cancer screen), the “selectivity for leukemia (in words)” value is “showed selectivity for leukemia”. Further, the “Activity (Average PG for highest dose tested) Melanoma” value in data set [4] is −85.1%. Besides, in [5], the “Activity (Average PG for highest dose tested) CNS Cancer” value is −93.8%. In data set [6], the “Activity (Average PG for highest dose tested) Colon Cancer” value was −66.6%. Further, the “Activity (Average PG for highest dose tested) Renal Cancer” value in data set [7] is listed as −92.0%. Further, in [8], the “Activity (Average PG for highest dose tested) Breast Cancer” value was −62.7%. In addition, the “Activity (Average PG for highest dose tested) Ovarian Cancer” value in data set [9] is −86.7%. Besides, the “Activity (Average PG for highest dose tested) Prostate Cancer” value in [10] is listed as −79.0%. For the same molecule, in data set [11], the “Activity (Average PG for highest dose tested) Non-Small Cell Lung Cancer” value is listed as −71.1%.
